{"source": "paper PMC6715247", "about": "(PLoS Neglected Tropical Diseases, 2019)", "key": {"[1]": {"test_system": "E. invadens cyst formation", "parameters": "method as in PMID 30087858", "conditions": "ref [18], cited from earlier work"}, "[2]": {"target": "T1, rHsAPSK (recombinant APSK domain of HsPAPSS1) (Homo sapiens, UniProt O43252)", "T1 construct": "APSK domains of HsPAPSS1 (Ala^25—Pro^227) and -2 (Ser^15—Pro^217); His tag (pCold-I vector); made in house; host or cells: E. coli BL21(DE3)", "T1 sequence (O43252 25-227)": "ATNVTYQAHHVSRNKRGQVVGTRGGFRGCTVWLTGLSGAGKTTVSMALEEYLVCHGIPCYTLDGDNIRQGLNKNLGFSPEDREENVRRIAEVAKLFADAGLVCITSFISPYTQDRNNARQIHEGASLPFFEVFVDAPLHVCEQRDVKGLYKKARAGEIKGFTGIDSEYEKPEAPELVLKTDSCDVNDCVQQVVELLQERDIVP", "assay": "96-well plate-based in vitro APSK activity assay (coupling assay, NADH decrease)", "assay_type": "biochemical", "conditions": "10 μM compound, 1% DMSO", "protocol": "(§1) A coupling assay to measure APSK activity was performed as described except a 96-well plate was used. Briefly, each well contained 100 μL reaction mixture, which consisted of 90 μL coupling solution and 10 μL of either compound solution (see below) or 10% DMSO. […] The coupling solution was 100 mM Tris/HCl (pH 8.0), 1 mM MgCl2, 1 mM KCl, 5 mM Mg2ATP, 1 mM NADH, 1 mM PEP, 1 U NP1, 3.5 U PK, 5.0 U LDH, and APSK (≤3 μL). […] As controls, in place of purified APSK solution (rEhAPSK or rHsAPSK), 3 μL of a blank [50 mM Tris/HCl buffer (pH 8.0)], a solvent (elution buffer), a mock (rEhSF2), or denatured APSK suspensions obtained by heat-treatment, were added to the coupling solution. The activity of each sample was calculated after removing the baseline value of the blank control.\n(§2) For the inhibition assay, 2 μL of each stock solution, which were distributed in a 96-well plate, were transferred to a new plate to make a replicate. After adding 18 μL deionized water to each well and mixing, 10 μL of each diluted solution (100 μM compound solution) was again transferred into a new 96-well plate to make a replicate. Then 90 μL of the coupling solution prepared above was dispensed into each well containing the previously added 10 μL of 100 μM compound solution. As a solvent control, 10% DMSO solution (vol/vol-deionized water) was used in place of compound solution. The final concentrations of each compound and DMSO in a well were 10 μM and 1% (vol/vol), respectively. The assays were performed independently three times, and data are shown as the mean with SD.\n(§3) In all assays, prepared mixtures in a plate were mixed on a vibrating table equipped with either an EnVision or ARVO plate reader (PerkinElmer) before starting the reaction."}, "[3]": {"target": "rEhAPSK (Entamoeba histolytica, UniProt C4LUW9)", "sequence (C4LUW9 entry or part of it)": "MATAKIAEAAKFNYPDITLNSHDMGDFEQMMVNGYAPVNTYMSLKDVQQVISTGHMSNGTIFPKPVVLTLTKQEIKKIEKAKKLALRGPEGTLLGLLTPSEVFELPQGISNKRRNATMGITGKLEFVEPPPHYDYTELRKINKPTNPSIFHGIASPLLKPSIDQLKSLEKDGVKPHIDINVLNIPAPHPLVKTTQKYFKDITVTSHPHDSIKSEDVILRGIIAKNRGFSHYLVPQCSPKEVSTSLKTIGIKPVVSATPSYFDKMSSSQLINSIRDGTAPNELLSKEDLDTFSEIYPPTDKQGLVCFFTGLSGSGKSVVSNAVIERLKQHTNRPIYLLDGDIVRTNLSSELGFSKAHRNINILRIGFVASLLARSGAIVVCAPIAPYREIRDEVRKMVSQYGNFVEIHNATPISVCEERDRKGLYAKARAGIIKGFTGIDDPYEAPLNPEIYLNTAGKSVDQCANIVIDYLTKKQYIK", "assay": "96-well plate-based in vitro APSK activity assay (coupling assay, NADH decrease)", "assay_type": "biochemical", "conditions": "10 μM compound, 1% DMSO", "protocol": "as §1, §2\nOne millimolar stock solutions used were either thawed in a replicate (96-well plate) prepared in [18] […] Subsequently, 3.4 μL of the 1 mM and each diluted stock solution were dispensed into wells of a 96-well culture plate, containing 30.6 μL deionized water and mixed well by pipetting. Ten microliters of all resulting solutions were then dispensed into wells of a 96-well plate to make triplicates and then used as described for the above inhibition assay. 10% DMSO solution was used as an inhibitor-free control. Note that the final DMSO concentration in any well was 1% (vol/vol).\nas §3"}, "[4]": {"test_system": "E. histolytica trophozoite", "parameters": "method as in PMID 30087858", "conditions": "ref [18], cited from earlier work"}, "[5]": {"test_system": "recombinant EhTrxR", "parameters": "method as in PMID 22610278, PMID 26876147", "conditions": "ref [19], [59]; cited from earlier work"}, "[6]": {"test_system": "E. invadens cyst formation", "assay": "E. invadens cyst formation (encystation) assay (flow cytometry)", "assay_type": "cell-based, Entamoeba invadens", "conditions": "compound added at 48 h post-induction (48–72 h)", "protocol": "E. histolytica trophozoite proliferation and E. invadens cyst formation assays were performed essentially as described in [18] except that in addition to 0–72 and 48–72 h cyst formation assays, 0–96 and 0–120 h, and 48–96 and 48–120 h assays were also performed."}, "[7]": {"test_system": "Human foreskin fibroblast (HFF) cells", "assay": "WST-1-based cytotoxicity assay", "protocol": "Human foreskin fibroblast (HFF) cells (purchased from ATCC) were routinely maintained in DMEM supplemented with 10% fetal bovine serum, 100 units/ml penicillin, […] and 1% GlutaMAX™-I (Thermo Fisher Scientific, Waltham, MA). A WST-1-based cytotoxicity assay was performed as previously described. In detail, HFF cells were plated at 1.0×10^4 cells/100 μL medium in each well of a 96-well culture plate, and incubated overnight at 37°C in a 5% CO2 atmosphere to allow cells to adhere to the wells. […] Numbers of viable cells were then assessed using the Premix WST-1 Cell Proliferation Assay System (Takara). […] DMSO was added at 1% as a negative control whereas ionomycin was added at 30 μM as a positive control. As a blank, the above culture medium was used in place of the solutions added."}, "[8]": {"test_system": "sulfolipids synthesized in E. histolytica trophozoites", "assay": "Metabolic labeling by [35S]-labeled sulfate, sulfolipid synthesis", "assay_type": "cell-based, Entamoeba histolytica", "conditions": "6 h treatment; A-D-11, A-H-11 6.25-100 μM, E-H-05 0.5-8 μM", "protocol": "Metabolic labeling of E. histolytica trophozoites by [^35S]-labeled sulfate was performed essentially as described previously with slight modification. […] Each 10 mM stock solution (in DMSO) of the three commercially sourced compounds was serially diluted by 2-fold decrements with DMSO. The resulting diluted solutions were then added to 0.75 ml cell suspension in BI-S-33 medium at 1/100 (vol/vol). […] Note that DMSO was used as a solvent control at 1%, which was the DMSO concentration in all samples analyzed. [^35S]-labeled sulfate (45 μCi) was added 4 h after the start of treatments and labeled cells were harvested at 6 h. […] Each spot on the TLC plates was quantified using a Fuji imaging analyzer and Multi Gauge 2.2 software (FLA-7000; Fujifilm, Japan). The total cell protein was estimated using a Pierce BCA protein assay kit (Thermo Scientific, Rockford, IL, USA)."}}, "data": [{"substance": "auranofin [E-H-05, reference compound]", "values": [{"measurement": "Effect on cyst formation", "setting": "[1]; 10 μM", "value": "negative effects"}, {"measurement": "IC50", "setting": "[1]; average ± SD", "value": "1730 ± 700", "unit": "nM"}, {"measurement": "Inhibition of rHsAPSK activity", "setting": "[2]", "value": "none showed any inhibitory activity against HsAPSK"}, {"measurement": "Inhibition of rEhAPSK activity", "setting": "[3]", "value": "reproducibly inhibited rEhAPSK activity"}, {"measurement": "Effect on trophozoite proliferation", "setting": "[4]; 10 μM", "value": "negative effects"}, {"measurement": "IC50", "setting": "[4]; average ± SD, read-out: Trophozoite proliferation IC50", "value": "650 ± 180", "unit": "nM"}, {"measurement": "IC50", "setting": "[5]", "value": 400, "unit": "nM"}, {"measurement": "Number of cysts formed at 72 h", "setting": "[6]", "value": "did not affected the number of cyst formed at 72 h"}, {"measurement": "Number of viable HFF cells relative to 1% DMSO control (set as 100%)", "setting": "[7]; 10 μM, 48 h", "value": "< 10", "unit": "%"}, {"measurement": "IC50", "setting": "[7]; read-out: Cytotoxicity (HFF) IC50, 48 h exposure, WST-1", "value": "4000 ± 1400", "unit": "nM"}, {"measurement": "Amount of sulfolipids synthesized", "setting": "[8]", "value": "dose-dependently reduced the amount of sulfolipids synthesized"}]}]}
